Measured values: US12678509B2, “Inhibitor of apoptosis (IAP) protein antagonists” (Sanford Burnham Prebys Medical Discovery Institute, priority 2019, dated 2026)

Legend:
Format in all cases: cell-based, Human
[1] = Cell viability (CellTiter-Glo), 6-day compound treatment; conditions: human, HFF cells, 6 d, read-out: Cell viability at max. concentration
Protocol: (§1) The compound 18a was tested in 16 different cell lines. For 6-day compound treatment 1700 cells per well were plated in a 384-well plate (Corning #781098) and incubated overnight at 37° C./5% CO2. The following day, compounds in 10-fold dilutions were added to the plates and the plates were incubated for 6 days. Afterwards, 20 μL CellTiter-Glo reagent (Promega, #G7570) was added to each well outside of the incubator and the plates were read for luminescence on a Spark® multimode microplate reader (Tecan). Data was fit in GraphPad Prism 8 to a nonlinear regression curve to determine the IC50 of the compounds.

HFF = assay: as above; conditions: Homo sapiens, 144 h, read-out: IC50 6 d
Protocol: as §1

BxPC3 = assay: as above
Protocol: as §1

SW-1271 = assay: as above
Protocol: as §1

H69AR = assay: as above
Protocol: as §1

MDA-MB-468 = assay: as above
Protocol: as §1

MV411 = assay: as above
Protocol: as §1

MDA-MB-231 = assay: as above
Protocol: as §1

NCI-H510A = assay: as above
Protocol: as §1

MALME 3M = assay: as above
Protocol: as §1

HL-60 = assay: as above
Protocol: as §1

[2] = Homo sapiens, 144 h, read-out: IC50 6 d

In the case of `CN[C@@H](C)C(=O)N[C@H]1CCS[C@H]2CC(C)(C)[C@@H](C(=O)N[C@H]3c4ccccc4C[C@H]3OCC#CC#CCO[C@@H]3Cc4ccccc4[C@@H]3NC(=O)[C@H]3N4C(=O)[C@@H](NC(=O)[C@H](C)NC)CCS[C@H]4CC3(C)C)N2C1=O` [Compound 18a, (2S)-1-{[(4S,7S,9aS)-74{(1S,2R)-2-[(6-{[(1S,2R)-1-({[(4S,7S,9aS)-8,8-Dimethyl-4-{[(2S)-2-(methylammonio)propanoyl]amino}-5-oxooctahydropyrrolo[2,1-b][1,3]thiazepin-7-yl]carbonyl}amino)-2,3-dihydro-1H-inden-2-yl]oxy}hexa-2,4-diyn-1-yl)oxy]-2,3-dihydro-1H-inden-1-yl}carbamoyl)-8,8-dimethyl-5-oxooctahydropyrrolo[2,1-b][1,3]thiazepinyl]amino}-N-methyl-1-oxopropan-2-ammonium dichloride], the viability at 6 d [1] is reported as under 100%, the IC50 (HFF) is reported as under 100000 nM and the “Cell viability at max. concentration” value (BxPC3; BxPC3, 6 d) is reported as “III (50%<III<100%)”. The IC50 (BxPC3; Homo sapiens, BXPC-3, 144 h, read-out: IC50 6 d) was 1000 to 10000 nM, the IC50 (SW-1271; Homo sapiens, SW1271, 144 h, read-out: IC50 6 d) was 100 to 1000 nM and the “Cell viability at max. concentration” value (SW-1271; SW-1271, 6 d) was “I (I<10%)”. The “Cell viability at max. concentration” value (H69AR; 6 d) was “I (I<10%)”, the IC50 (H69AR; [2]) was 1000 to 10000 nM and the IC50 (MDA-MB-468; Homo sapiens, MDA-MB-468, 144 h, read-out: IC50 6 d) was 100 to 1000 nM. For the same compound, the “Cell viability at max. concentration” value (MDA-MB-468; MDA-MB-468, 6 d) was “I (I<10%)”, the IC50 (MV411; Homo sapiens, MV4-11, 144 h, read-out: IC50 6 d) was 100 to 1000 nM and the “Cell viability at max. concentration” value (MV411; MV411, 6 d) was “I (I<10%)”. For the same compound, the IC50 (MDA-MB-231; Homo sapiens, MDA-MB-231, 144 h, read-out: IC50 6 d) was 100 to 1000 nM, the “Cell viability at max. concentration” value (MDA-MB-231; MDA-MB-231, 6 d) was “I (I<10%)” and the “Cell viability at max. concentration” value (NCI-H510A; 6 d) was “IV (IV<100%)”. The IC50 (NCI-H510A; [2]) was under 100000 nM, the IC50 (MALME 3M; Homo sapiens, Malme-3M, 144 h, read-out: IC50 6 d) was 10 to 100 nM and the “Cell viability at max. concentration” value (MALME 3M; MALME 3M, 6 d) was “I (I<10%)”. The “Cell viability at max. concentration” value (HL-60; HL-60, 6 d) was “I (I<10%)” and the IC50 (HL-60; Homo sapiens, HL-60, 144 h, read-out: IC50 6 d) was 10 to 100 nM.
